Experimental data published in patent publication US20050266060A1, “Transdermal delivery system for treatment of cognitive disorders” (priority 2004, published 2005).

Tests used:
brain extracellular ACh = assay: striatal in vivo microdialysis in conscious, freely-moving rats
Experimental: (§1) To determine the time-dependent effects of phenserine on cholinergic function, AChE activity, brain and plasma drug levels and brain extracellular ACh concentrations were measured in rats before and after phenserine administration.

cholinesterase = assay: inhibition of cholinesterase activity; assay type: biochemical
Description: The phenserine compounds of the invention may be synthesized using processes known in the art. For example, U.S. Pat. Nos. 6,495,700, 5,409,948, 5,171,750, 5,378,723, and 5,998,460, and WO 03/082270 A1, all of which are hereby incorporated by reference in their entirety, describe the preparation of the phenserine compounds of the invention and enzyme inhibition assays that may be used to test compounds of the invention.

[1] = system: beta amyloid precursor protein; assay: production of beta amyloid precursor protein
[2] = chemical stability of phenserine in vehicles; assay type: physicochemical
Experimental: The time-course profiles for phenserine penetration across human epidermis from the formulations of the invention are conducted. […] Therefore, breakdown and degradation products, for example, by hydrolysis and subsequent oxidation, are assayed in each vehicle. The vehicles of the invention, including propionic acid and/or oleic acid, are assayed for the chemical stability of a phenserine compound.

[3] = solubility of phenserine or its salt; assay type: physicochemical; details: propionic acid as co-solvent with isopropyl myristate and/or oleic acid
Experimental: To assay solubility, between 10-20 mg of phenserine is weighed into a 1 ml volumetric flask. An initial 1 ml volume of a chosen vehicle is added to the flask and the mixture agitated, for example, ultrasonically for at least 30 minutes.

[4] = in vitro penetration across human epidermis in glass diffusion cells; assay type: in vitro ADME
Experimental: Preparation of skin membranes: Human skin is obtained post mortem and may be stored at −20° C. until needed. When required the tissue is allowed to thaw at room temperature and the subcutaneous fat removed. Epidermal sheets are separated from full-thickness skin by immersing in water at 60° C. for 45 seconds and gently peeling away the epidermis. Alternatively, skin may be obtained from another source, such as a mouse or rat.
Absorption studies are performed in vitro using glass diffusion cells, having epidermal membranes mounted in Franz type diffusion cells. For example, Franz type diffusion cells having a cross-sectional area of 2.54 cm^2. The cells may be housed in a water bath to maintain a desired temperature. The upper surface of the membrane is exposed to donor solution and the under surface of the membrane is bathed by continuously stirred receptor fluid. Receptor fluid may be a phosphate buffered saline solution, or any physiological solution.
Membrane integrity may be assayed using methods well known in the art prior to conducting a diffusion assay. […]
Results from absorption experiments are typically plotted as cumulative amount absorbed against time. The steady state penetration rate, or flux, J (μg/cm^2/hr), is typically calculated by linear regression analysis from the linear regions of an absorption plot. […]

[5] = clinical studies of oral phenserine compound; assay type: in vivo, human; details: oral dose of about 10 and/or 15 mg bid
Experimental: Clinical studies indicate that an oral dose of a phenserine compound of about 10 and/or 15 mg bid may produce a beneficial treatment for cognitive disorders, such as AD. […] Therefore, the dosage of a phenserine compound may be reduced when administered transdermally.

[6] = brain and plasma drug levels in rats after phenserine i.v. dosing
Experimental: as §1

AChE = target: T1, AChE (Rattus norvegicus, UniProt P37136); assay: time-dependent AChE inhibition in rats after phenserine administration
T1 sequence (P37136 32-614): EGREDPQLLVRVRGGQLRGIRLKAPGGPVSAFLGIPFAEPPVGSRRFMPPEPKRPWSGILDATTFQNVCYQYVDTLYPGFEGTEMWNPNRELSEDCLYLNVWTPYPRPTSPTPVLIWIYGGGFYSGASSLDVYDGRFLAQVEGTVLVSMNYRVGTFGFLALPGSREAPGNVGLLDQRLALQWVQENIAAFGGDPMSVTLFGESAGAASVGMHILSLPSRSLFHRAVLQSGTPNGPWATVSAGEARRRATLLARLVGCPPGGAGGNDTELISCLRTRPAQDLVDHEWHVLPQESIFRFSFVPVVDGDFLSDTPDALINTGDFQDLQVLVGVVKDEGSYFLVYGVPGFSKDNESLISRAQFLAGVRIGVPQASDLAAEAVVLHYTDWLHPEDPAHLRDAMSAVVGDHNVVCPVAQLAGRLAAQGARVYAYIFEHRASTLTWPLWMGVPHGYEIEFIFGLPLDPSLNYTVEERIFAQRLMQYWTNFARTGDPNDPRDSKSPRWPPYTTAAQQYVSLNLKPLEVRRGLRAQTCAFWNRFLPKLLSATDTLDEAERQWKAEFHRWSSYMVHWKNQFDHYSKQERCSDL
Experimental: as §1

[7] = skin irritancy and skin penetration of mixture with oleic acid; details: 50:50 mixture with oleic acid
Description: Ethyl oleate gives a better performance still and is optimal in combination with propionic acid.

## CN1CC[C@@]2(C)c3cc(OC(=O)Nc4ccccc4)ccc3N(C)C12 (single isomer, unassigned) [phenserine]
Brain extracellular ACh
  rise in brain ACh levels: > 3 fold
cholinesterase
  inhibition of cholinesterase activity: long-acting inhibitor of cholinesterase
[1]
  production of beta amyloid precursor protein: reduction in β-APP production
[2]; propionic acid as co-solvent with isopropyl myristate and/or oleic acid
  effect of co-solvent on stability: increase
[2]; vehicles of the invention, such as propionic acid and/or oleic acid
  chemical stability in vehicle: chemically stable
[3]
  effect of co-solvent on solubility: increase
[4]; 25% in propionic acid/isopropyl myristate
  transdermal flux rate: sufficiently high transdermal flux rates
[4]; 25% in propionic acid/oleic acid
  transdermal flux rate: sufficiently high transdermal flux rates
[5]
  signs of cholinergic over stimulation: does not cause overt signs of cholinergic over stimulation
[6]; rat, brain / plasma, iv
  Kp: 10
[6]; rat, brain, iv
  half-life: 8.5 min
[6]; rat, plasma, iv
  half-life: 12.6 min
[6]; rats, i.v. dosing
  time to peak drug level: ≤ 5 min
AChE; rat, plasma, po
  bioavailability: 100%
AChE; rats, i.v. dosing
  half-life of AChE inhibition: > 495 min
  inhibition of AChE: > 70%

## CN1CC[C@]2(C)c3cc(OC(=O)Nc4ccccc4)ccc3N(C)C12 (stereo partly drawn) [POSIPHEN, (3aR)-1,3a,8-trimethyl-1,2,3,3a,8,8a-hexahydropyrrolo[2,3-b]indol-5-yl phenylcarbamate]
cholinesterase
  inhibition of cholinesterase activity: does not inhibit cholinesterase activity
[1]
  production of beta amyloid precursor protein: reduces the production of beta amyloid precursor protein

## CNC(=O)Oc1ccc2c(c1)[C@]1(C)CCN(C)[C@@H]1N2C [physostigmine]
[7]
  penetration through the skin: very efficient
  skin irritancy: non-irritant
